Structures are written as SMILES.

The nature of data set [1]: Pressure stability of crystal form (hydraulic press, XRPD). Format: physicochemical. As to the method:
The Hydraulic press experiment is carried out on an SYP-5BS manual press, and the pressure put on to the sample is about 350 MPa.
Crystal form C of the compound of formula (I) was added to a circular mold (6 mm in diameter) and pressurized to about 350 MPa. A small piece of the sheet-like sample was directly taken for XRPD analysis.

Data set [2] in a line: Solid stability of crystal form (XRPD and HPLC). Format: physicochemical. On the procedure:
The purity and solubility of a sample are determined through a high performance liquid chromatograph Agilent 1260 HPLC.
To evaluate the solid stability of crystal form C of the compound of formula (I), crystal form C of the compound of formula (I) was subjected to stability testing under affecting factor conditions (high temperature, high humidity, and light), 60° C./75% RH conditions, and 40° C./75% RH conditions. Crystal form C was placed under a high-temperature condition (60° C., closed) and a high-humidity condition (92.5% RH, wrapped in a sealing film, with 5 small holes made) for 1 week and 2 weeks, placed in a closed container in visible light and ultraviolet light (a light-shielding control group was set at the same time, and the sample was wrapped in tinfoil) according to the ICH conditions (visible light illumination reached 1.2E+06 Lux hrs, and ultraviolet light illumination reached 200 W·hrs/m2), and meanwhile placed under 60° C./75% RH conditions (wrapped in a sealing film, with 5 small holes made) for 1 month and 2 months and under 40° C./75% RH conditions (wrapped in a sealing film, with 5 small holes made) for 1 month, 2 months, and 3 months. All the stability samples were tested for crystal form change by XRPD analysis and were analyzed by HPLC.

In data set [3] the test system is NCI-H358 cells. Nature of the data set: Cell proliferation assay (CellTiter-Glo), NCI-H358. Format: cell-based, Human. As to the method:
(§1) The effect of the compound on cell proliferation was examined on NC-H358, MA-PA-CA-2, A375, SW1463, and A427 cells.
Medium for H358 cell line: 89% RPMI1640 medium+10% fetal bovine serum+1% P/S
(§2) • 1. The medium and pancreatin used in the process of cell passaging were pre-heated in a water bath at 37° C. • 2. The cells were rinsed with pancreatin and digested with pancreatin until the cells were detached. A culture solution was added, and the cells and the culture solution were well mixed to stop the digestion. • 3. The cells were pipetted into a 15 mL centrifuge tube, 0.01 mL of cell suspension was pipetted onto a count plate, and cells were counted. • 4. According to the cell densities shown in the table below, a proper amount of each type of cells was transferred to a 15 mL centrifuge tube and made up to a volume of 9 mL with a corresponding cell culture solution.
• 5. […]
(§3) • 1. On the day of compound treatment, the day-0 test plate was removed from the incubator, 50 µL of Cell Titer Glo was added, and the plate was centrifuged at 1000 rpm for 10 s, shaken at room temperature for 10 min, then centrifuged again at 1000 rpm for 10 s, and read on Envision. • 2. […] To each well of the 96-well plates, 50 µL of Cell Titer-Glo was added, and the plates were centrifuged at 1000 rpm for 10 s, shaken at room temperature for 10 min, then centrifuged again at 1000 rpm for 10 s, and read on Envision. • 3. […]
For orientation: ATP-based viability assays read luminescence as a measure of living cells.

The test system of data set [4] is MIA-PA-CA-2 cells. Nature of the data set: Cell proliferation assay (CellTiter-Glo), MIA-PA-CA-2. In kind it is cell-based, Human. On the procedure: as §1
Medium for MIA-PA-CA-2 cell line: 86.5% DMEM medium+10% fetal bovine serum+2.5% horse serum+1% P/S
(§4) • 1. The medium and pancreatin used in the process of cell passaging were pre-heated in a water bath at 37° C. • 2. The cells were rinsed with pancreatin and digested with pancreatin until the cells were detached. A culture solution was added, and the cells and the culture solution were well mixed to stop the digestion. • 3. The cells were pipetted into a 15 mL centrifuge tube, 0.01 mL of cell suspension was pipetted onto a count plate, and cells were counted. • 4. […]
as §3

Data set [5] has as its system A375 cells. Nature of the data set: Cell proliferation assay (CellTiter-Glo), A375. Format: cell-based, Human. On the procedure: as §1
Medium for A375 cell line: 89% DMEM medium+10% fetal bovine serum+1% P/S
as §2
• 5. […]
as §3

The subject of data set [6] is SW1463 cells. Nature of the data set: Cell proliferation assay (CellTiter-Glo), SW1463. In kind it is cell-based, Human. On the procedure: as §1
Medium for SW1463 cell line: 89% Leibovit2 sL-15 medium+10% fetal bovine serum+1% P/S
as §4, §3

Data set [7] concerns A427 cells. Nature of the data set: Cell proliferation assay (CellTiter-Glo), A427. In kind it is cell-based, Human. As to the method:
as §1
Medium for A427 cell line: 89% EMEM medium+10% fetal bovine serum+1% P/S
as §2
• 5. […]
as §3

Data set [8] has as its system KRAS G12C. The following applies: cited from earlier work.
Data set [9] relates to pancreatic cancer MIA-Paca2 cell. The following applies: subcutaneous xenograft tumor model of pancreatic cancer MIA-Paca2 cell; cited from earlier work.
Where [10] appears, read: Light-shielding control group, simultaneously with visible + ultraviolet.
[11] abbreviates: Visible + ultraviolet (ICH conditions), 1.2E+06 Lux · hrs, 300 W · hrs/m^2.

`C=CC(=O)N1CCN(c2nc(N3CC(N(CC)CC)C3)nc3c(=O)n(-c4c(N)c(Cl)cc(Cl)c4F)c(C(F)(F)F)cc23)CC1` [crystal form C]: in [1] (about 350 MPa), the “pressure stability (conclusion)” value was “good pressure stability”. The “crystal form change after being pressed (XRPD)” value in data set [1] (pressure of about 350 MPa) was “did not change”. Also, the Crystal form change result in data set [2] (40° C./75% RH, 1 month) was “Unchanged”; in data set [2] (40° C./75% RH, 2 months), “Unchanged”; in data set [2] (40° C./75% RH, 3 months), “Unchanged”; in data set [2] (60° C., closed, 1 week), “Unchanged”; in data set [2] (60° C., closed, 2 weeks), “Unchanged”; in [2] (60° C./75% RH, 1 month), “Unchanged”. Also, the Crystal form change entry is “Unchanged” in data set [2] (60° C./75% RH, 2 months); “Unchanged” in data set [2] (92.5% RH, 1 week); “Unchanged” in data set [2] (92.5% RH, 2 weeks); “Unchanged” in [2] (setting [10]); “Unchanged” in data set [2] (Starting sample); “Unchanged” in data set [2] (setting [11]). Further, the “Purity (%)” value turned out to be 98.00% in data set [2] (40° C./75% RH, 1 month); 97.92% in [2] (40° C./75% RH, 2 months); 98.02% in data set [2] (40° C./75% RH, 3 months); 97.99% in data set [2] (60° C., closed, 1 week); 97.98% in [2] (60° C., closed, 2 weeks); 97.92% in [2] (60° C./75% RH, 1 month). The “Purity (%)” value amounted to 97.98% in data set [2] (60° C./75% RH, 2 months); 98.03% in [2] (92.5% RH, 1 week); 98.00% in data set [2] (92.5% RH, 2 weeks); 98.00% in [2] (setting [10]); 97.85% in data set [2] (Starting sample); 96.62% in data set [2] (setting [11]). The Relative purity in data set [2] (40° C./75% RH, 1 month) was determined as 100.2%; in data set [2] (40° C./75% RH, 2 months), 100.1%; in data set [2] (40° C./75% RH, 3 months) it was 100.2%; in [2] (60° C., closed, 1 week), 100.1%; in data set [2] (60° C., closed, 2 weeks) it was 100.1%; in data set [2] (60° C./75% RH, 1 month), 100.1%. Further, the Relative purity in [2] (60° C./75% RH, 2 months) was 100.1%; in data set [2] (92.5% RH, 1 week), 100.2%; in data set [2] (92.5% RH, 2 weeks), 100.2%; in data set [2] (setting [10]), 100.2%; in data set [2] (setting [11]), 98.7%. Also, the “solid stability (conclusion)” value in data set [2] (high temperature, high humidity, light, 60° C./75% RH, 40° C./75% RH) was “good solid stability”.
The IC50 is the concentration at which inhibition is half-maximal. A higher IC50 goes with a need for much substance. As for `C=CC(=O)N1CCN(c2nc(N3CC(N(CC)CC)C3)nc3c(=O)n(-c4c(N)c(Cl)cc(Cl)c4F)c(C(F)(F)F)cc23)CC1` [Compound of formula (I)], the IC50 in [3] (Homo sapiens, NCI-H358, 120 h incubation, CellTiter-Glo) was 13 ± 1.85 nM; in [4] (Homo sapiens, MIA PaCa-2, MIA-PA-CA-2, 72 h incubation, CellTiter-Glo) it was 34 ± 7.03 nM; in [5] (Homo sapiens, A-375, A375, 72 h incubation, CellTiter-Glo), 4640 ± 89.8 nM; in [6] (Homo sapiens, SW1463, 144 h incubation, CellTiter-Glo) it was 112 ± 32.7 nM; in [7] (Homo sapiens, A-427, A427, 72 h incubation, CellTiter-Glo), above 6980 nM. In addition, the “inhibitory activity against proliferation” value in [3] (human non-small cell lung cancer cell NCI-H358), in data set [4] (pancreatic cancer cell MIA-PA-CA-2) and in data set [6] (human rectal adenocarcinoma cell SW1463) was “good inhibitory activity” in each case. Besides, the activity on cell result in data set [5] (melanoma cell A375) and in data set [7] (human lung cancer cell A427) was “weak activity” in each case.
For `C=CC(=O)N1CCN(c2ncnc3c(F)c(-c4c(O)cccc4F)c(Cl)cc23)CC1` [ARS-1620], the “cell antiproliferative activity at the cellular level” value in [8] is on record as “nM level”. In addition, the tumor growth inhibition entry in data set [9] is listed as “can effectively inhibit tumor growth”.

Source of the values: patent US20250268901A1, “CRYSTAL FORM OF AZETIDINE-SUBSTITUTED COMPOUND” (MEDSHINE DISCOVERY INC., priority 2020, published 2025).
